Assay results reported in US20180320217A1, “METHODS FOR SAMPLING AND MEASURING ORAL LAVAGE PROTEINS” (The Procter & Gamble Company, priority 2017, published 2018).
Where a name gives a salt, the structure may show the parent alone.

How the values were obtained:
diaphorase = assay: Formation of formazan dyes: only diaphorase, not malate (TABLE 13); format: biochemical, Clostridium kluyveri; conditions: mean of three experiments
oral lavage [1] = assay: Formation of formazan dyes: oral lavage, malate and diaphorase (TABLE 12); format: biochemical, human; conditions: oral lavage, malate and diaphorase
oral lavage [2] = assay: Formation of formazan dyes: oral lavage and diaphorase, not malate (TABLE 11); format: biochemical, human
[3] = Formation of formazan dyes: control buffer and 1-Methoxy PMS, absence of malate (TABLE 21); format: biochemical; conditions: for Absorbance, formation of formazan dyes (Means): control buffer and 1-Methoxy PMS, absence of malate, mean of three experiments
[4] = Formation of formazan dyes: control buffer, malate and 1-Methoxy PMS (TABLE 22); format: biochemical; conditions: control buffer, malate and 1-Methoxy PMS, mean of three experiments

In the case of Cc1nc(-[n+]2nc(-c3cccc(OCC(=O)O)c3)nn2-c2ccc(S(=O)(=O)[O-])cc2)sc1C [MTS, 3-(4,5-dimethylthiazol-2-yl)-5-(3-carboxymethoxyphenyl)-2-(4-sulfophenyl)-2H-tetrazolium, inner salt], the “Absorbance, formation of formazan dyes (Means)” value (from here on “Absorbance, formation”) (diaphorase; 0 h) was 0.16, the “Absorbance, formation” value (diaphorase; 1 h) was 0.25 and the “Absorbance, formation” value (diaphorase; 2 h) was 0.26. For the same compound, the “Absorbance, formation” value (diaphorase; 3 h) was 0.22, the “Absorbance, formation” value (diaphorase; 4 h) was 0.17 and the “Absorbance, formation” value (diaphorase; 6 h) was 0.20. For the same compound, the “Absorbance, formation” value (diaphorase; 8 h) was 0.16, the “Absorbance, formation” value (diaphorase; 10 h) was 0.13 and the “Absorbance, formation” value (diaphorase; 12 h) was 0.14. For the same compound, the “Formation of formazan dyes, absorbance, Means 0 h” value (oral lavage [1]; 0 h) was 0.68, the “Formation of formazan dyes, absorbance, Means 1 h” value (oral lavage [1]; 1 h) was 0.93 and the “Formation of formazan dyes, absorbance, Means 2 h” value (oral lavage [1]; 2 h) was 1.07. The “Formation of formazan dyes, absorbance, Means 3 h” value (oral lavage [1]; 3 h) was 1.14, the “Formation of formazan dyes, absorbance, Means 4 h” value (oral lavage [1]; 4 h) was 1.34 and the “Formation of formazan dyes, absorbance, Means 6 h” value (oral lavage [1]; 6 h) was 1.56. The “Formation of formazan dyes, absorbance, Means 8 h” value (oral lavage [1]; 8 h) was 1.84, the “Formation of formazan dyes, absorbance, Means 10 h” value (oral lavage [1]; 10 h) was 2.10 and the “Formation of formazan dyes, absorbance, Means 12 h” value (oral lavage [1]; 12 h) was 2.27. The “Formation of formazan dyes, absorbance, Means 0 h” value (oral lavage [2]; oral lavage and diaphorase, not malate, 0 h) was 0.70, the “Formation of formazan dyes, absorbance, Means 1 h” value (oral lavage [2]; oral lavage and diaphorase, not malate, 1 h) was 0.86 and the “Formation of formazan dyes, absorbance, Means 2 h” value (oral lavage [2]; oral lavage and diaphorase, not malate, 2 h) was 0.91. The “Formation of formazan dyes, absorbance, Means 3 h” value (oral lavage [2]; oral lavage and diaphorase, not malate, 3 h) was 1.00, the “Formation of formazan dyes, absorbance, Means 4 h” value (oral lavage [2]; oral lavage and diaphorase, not malate, 4 h) was 1.13 and the “Formation of formazan dyes, absorbance, Means 6 h” value (oral lavage [2]; oral lavage and diaphorase, not malate, 6 h) was 1.18. The “Formation of formazan dyes, absorbance, Means 8 h” value (oral lavage [2]; oral lavage and diaphorase, not malate, 8 h) was 1.21, the “Formation of formazan dyes, absorbance, Means 10 h” value (oral lavage [2]; oral lavage and diaphorase, not malate, 10 h) was 1.25 and the “Formation of formazan dyes, absorbance, Means 12 h” value (oral lavage [2]; oral lavage and diaphorase, not malate, 12 h) was 1.27. For the same compound, the “reduction to formazan dyes by pooled oral lavage” value (oral lavage [2]; pooled oral lavage of high bleeder group, diaphorase, no added malate (TABLE 11)) was “changed to formazan dyes in a significant amount”, the “Absorbance, formation” value ([3]; 0 h) was 0.36 and the “Absorbance, formation” value ([3]; 1 h) was 0.42. For the same compound, the “Absorbance, formation” value ([3]; 2 h) was 0.41, the “Absorbance, formation” value ([3]; 3 h) was 0.43 and the “Absorbance, formation” value ([3]; 4 h) was 0.43. The “Absorbance, formation” value ([3]; 6 h) was 0.48, the “Absorbance, formation” value ([3]; 8 h) was 0.59 and the “Absorbance, formation” value ([3]; 10 h) was 0.63. For the same compound, the “Absorbance, formation” value ([3]; 12 h) was 0.66, the “conversion into colored formazan dyes in assay buffer containing 1-methoxy PMS” value ([3]; control buffer, absence of malate (TABLE 21) or presence of malate (TABLE 22)) was “slowly catalyze the conversion of tetrazolium salts into colored formazan dyes” and the “Means absorbance 0 h” value ([4]; 0 h) was 0.20. For the same compound, the “Means absorbance 1 h” value ([4]; 1 h) was 0.20, the “Means absorbance 2 h” value ([4]; 2 h) was 0.21 and the “Means absorbance 3 h” value ([4]; 3 h) was 0.23. For the same compound, the “Means absorbance 4 h” value ([4]; 4 h) was 0.25, the “Means absorbance 6 h” value ([4]; 6 h) was 0.33 and the “Means absorbance 8 h” value ([4]; 8 h) was 0.36. For the same compound, the “Means absorbance 10 h” value ([4]; 10 h) was 0.47 and the “Means absorbance 12 h” value ([4]; 12 h) was 0.50.
